Source: patent publication US20050086714A1, “Eucalyptus transformation method” (AGRIGENESIS BIOSCIENCES LIMITED, priority 2003, published 2005)

What was measured:
Assay type in all cases: cell-based, Eucalyptus grandis
[1] = tested on: wild type internode explants of E. grandis clone 8 or C101; experiment: Effect of kanamycin level on shoot regeneration from wild type explants
Procedure: A range of kanamycin concentrations (0, 5, 10, 15, 20, 30, 40 and 50 mg/l) were then tested in four experiments to determine the minimum level of kanamycin for inhibiting regeneration from the wild type internode explants (Table 5).
Fifty internode explants of the E. grandis clone 8 or C101 were cultured on each of the eight media consisting of EuCo14 supplemented with kanamycin at eight different concentrations, namely 0, 5, 10, 15, 20, 30, 40 and 50 mg/l. […] An excessive level of kanamycin kills non-transformed cells in the explant early in the selection stages. This will reduce the regeneration from transformed cells which would be surrounded by these dead non-transformed cells.

[2] = tested on: internode explants of Eucalyptus clone C101 co-cultivated with LBA4404 containing pART69; experiment: Effect of kanamycin level on shoot regeneration from co-cultivated explants, Exp I
Procedure: (§1) Internode segment explants were prepared as described in Example 2 above. The explants were placed on a co-cultivation medium in a sideways orientation. The co-cultivation medium was usually EuCo19 (Table 2), although a similar medium could be employed. EuCo19 was based on the regeneration medium EuCo14, supplemented with 100 μM of acetosyringone. In addition, EuCo19 was solidified with gelrite while EuCo14 was solidified with agar. After 50 internode explants were placed on one medium plate, 1-2 μl of Agrobacterium cells were applied to each internode. The plate was then sealed and incubated at 22° C. under low intensity light (300 lux) for three days.
(§2) After 3 days of co-cultivation, the explants were transferred to regeneration/selection medium containing 20-50 mg/l kanamycin and 250 mg/l timentin. In a number of experiments, 10-30 explants from each treatment were taken from the selection medium at day 4 on the medium and tested for transient transgene expression using a GUS staining procedure described in Example 3.6 below.
(§3) In a follow-up experiment, 425 internode explants of the E. grandis clone C101 were co-cultivated with LBA4404 containing the binary vector pART69 and then transferred to selection media containing five different concentrations of kanamycin. The regeneration efficiencies were 100%, 17%, 8%, 3% and 1% from kanamycin concentrations of 0, 20, 30, 40 and 50 mg/l, respectively.

[3] = tested on: co-cultivated internode explants of Eucalyptus clone Eg8; experiment: Effect of kanamycin level on shoot regeneration from co-cultivated explants, Exp II
Procedure: as §1, §2, §3

Structure (SMILES): NC[C@H]1O[C@H](O[C@H]2[C@H](O)[C@@H](O[C@H]3O[C@H](CO)[C@@H](O)[C@H](N)[C@H]3O)[C@H](N)C[C@@H]2N)[C@H](O)[C@@H](O)[C@@H]1O [Kanamycin, kanamycin]
- Regeneration Rate ([1]; kanamycin 5 mg/L in EuCo14, Exp 3): 2%
- Regeneration Rate ([1]; kanamycin 5 mg/L in EuCo14, Exp 4): 10%
- Regeneration Rate ([1]; kanamycin 10 mg/L in EuCo14, Exp 3): 0%
- Regeneration Rate ([1]; kanamycin 10 mg/L in EuCo14, Exp 4): 0%
- Regeneration Rate ([1]; kanamycin 15 mg/L in EuCo14, Exp 3): 0%
- Regeneration Rate ([1]; kanamycin 15 mg/L in EuCo14, Exp 4): 0%
- Regeneration Rate ([1]; kanamycin 20 mg/L in EuCo14, Exp 1): 0%
- Regeneration Rate ([1]; kanamycin 20 mg/L in EuCo14, Exp 2): 4%
- Regeneration Rate ([1]; kanamycin 30 mg/L in EuCo14, Exp 1): 0%
- Regeneration Rate ([1]; kanamycin 30 mg/L in EuCo14, Exp 2): 0%
- Regeneration Rate ([1]; kanamycin 40 mg/L in EuCo14, Exp 1): 0%
- Regeneration Rate ([1]; kanamycin 40 mg/L in EuCo14, Exp 2): 0%
- Regeneration Rate ([1]; kanamycin 50 mg/L in EuCo14, Exp 1): 0%
- Regeneration Rate ([1]; kanamycin 50 mg/L in EuCo14, Exp 2): 0%
- Regeneration Rate ([2]; kanamycin 20 mg/l): 17%
- Regeneration Rate ([2]; kanamycin 20 mg/l, listed as kanamycin): 17%
- Regeneration Rate ([2]; kanamycin 30 mg/l): 8%
- Regeneration Rate ([2]; kanamycin 30 mg/l, listed as kanamycin): 8%
- Regeneration Rate ([2]; kanamycin 40 mg/l): 3%
- Regeneration Rate ([2]; kanamycin 40 mg/l, listed as kanamycin): 3%
- Regeneration Rate ([2]; kanamycin 50 mg/l): 1%
- Regeneration Rate ([2]; kanamycin 50 mg/l, listed as kanamycin): 1%
- Regeneration Rate ([3]; kanamycin 20 mg/l): 29%
- Regeneration Rate ([3]; kanamycin 30 mg/l): 12%
- Regeneration Rate ([3]; kanamycin 40 mg/l): 6%
- Regeneration Rate ([3]; kanamycin 50 mg/l): 4%
